According to PubChem BioAssay AID2060493 (Molecular Pharmacology Branch, DTP, NCI, 2025):
Values joined by “and” are separate entries in the source; they are usually repeats but may differ in a detail not shown here. Equal entries are not always repeated. One block for each compound: values may come before it.

Tested on: 616215-338-R-J1-PDC tumor spheroids, viability
Experiment: Anticancer human tumor 616215-338-R-J1-PDC patient-derived colon adenocarcinoma cell line growth inhibition [GQUAD]
Details: spheroids with HUVEC and MSC; for viability, T/C: stronger effect = lower value
Source text: DNA G-quadruplex Stabilizer Agents in Combinations in Complex Spheroids
A high-throughput screen of multi-cell type tumor spheroids was designed to identify active combinations of DNA G-quadruplex stabilizer agents and targeted small molecules. Complex spheroids include a stromal component modeled by human endothelial cells (HUVEC) and fibroblasts modeled by human mesenchymal stem cells (MSCs). The concentration ranges selected for each drug and investigational agent were based upon clinically achievable concentrations if the clinical Cmax of the agent was known.
Compounds. The drugs and investigational agents: pidnarulex (CX-5461; NSC782164), APTO-253 (NSC789042), BRACO-19 (NSC847499), peposertib (NSC802822), ceralasertib (NSC780249), elimusertib (NSC800525), camonsertib (NSC841442), AZD-1390 (NSC803789), olaparib (NSC753686), talazoparib (NSC767125), ART-558 (NSC835418), sotorasib (NSC818433), MRTX-1133 (NSC836407), SN-38 (NSC673596), topotecan (NSC609699), etoposide (NSC141540), doxorubicin (NSC123127), gemcitabine (NSC613327), 5-fluorouracil (NSC19893), paclitaxel (NSC125973), vemurafenib (NSC761431), panobinostat (NSC761190), R-306465 (JNJ-16241199; NSC773264), adavosertib (NSC754352), TP-3654 (NSC805149), carboplatin (NSC241240), KSQ-4279 (NSC840948), and staurosporine (NSC755774) were obtained from the National Cancer Institute (NCI) Developmental Therapeutics Program Chemical Repository (34). The FDA-approved anticancer drug set is available from the NCI Developmental Therapeutics Program. […] The stock solutions were prepared in dimethyl sulfoxide (DMSO, Sigma-Aldrich, St. Louis, MO, cat. D2650) at 800-fold the tested concentration and stored at -70 degrees C prior to their use. All drugs and investigational agents were tested over a range starting from a high concentration at or near the clinical Cmax and decreasing in half-log increments. If the clinical Cmax for an agent had not been determined, the highest concentration tested was 10 microM.
2.3 Cell Culture. All cells were maintained in an incubator at 37 degrees C and 5% CO2 with 95% humidity. The PDC lines were cultured according to standard operating procedures established by the NCI PDMR. All PDCs were thawed and cultured in Matrigel-coated flasks prepared with a working solution of 1X Ham's F-12 nutrient mix, without supplementation (Invitrogen, cat. 11765054), 100 U/mL penicillin-streptomycin (Invitrogen, cat. 15140122), and 2.5% Matrigel (Corning Inc., cat. 354248) for the first three passages. The 857933-349-R-J2-PDC line was cultured in 6C/Colon 1B media, which includes advanced DMEM/F-12 (Thermo Fisher Scientific, cat. 12634028), 10 mM HEPES (Thermo Fisher Scientific, cat. 15630080), 1X GlutaMAX supplement (Thermo Fisher Scientific, cat. 35050061), 0.1 mg/mL primocin (InvivoGen, cat. ant-pm-2), 10% defined fetal bovine serum, heat inactivated (HyClone Laboratories Inc., cat. SH30070.03HI), 50% L-WRN conditioned media (ATCC, cat. CRL-3276), 1.25 mM N-Acetyl-L-cysteine (Sigma-Aldrich, cat. A9165), 10 mM nicotinamide (Sigma-Aldrich, cat. N0636), 1X B-27 supplement (Thermo Fisher Scientific, cat. 17504044), 1X N-2 supplement (Thermo Fisher Scientific, cat. 17502048), 10 microM Y-27632 dihydrochloride (Tocris Bioscience, cat. 1254), and 50 ng/mL human EGF recombinant protein (Thermo Fisher Scientific, cat. PHG0311). The 485176-168-R4-J1-PDC line was cultured in Panc media, which includes all 6C/Colon 1B media components plus 100 ng/mL human FGF-10 (Thermo Fisher Scientific, cat. 100-26), 500 nM SB-431542 (Selleckchem, cat. S1067), and gastrin (Tocris, cat. 3006).
[…]

[1] = curve of first compound, second compound 0.0316 µM
[2] = curve of first compound, second compound 0.1 µM
[3] = curve of first compound, second compound 0.316 µM
[4] = curve of first compound, second compound 1 µM
[5] = curve of first compound, second compound 3.16 µM
[6] = curve of first compound, second compound 10 µM
[7] = second compound 0.0316 µM, first compound 0.0316 µM
[8] = second compound 0.0316 µM, first compound 0.1 µM
[9] = second compound 0.0316 µM, first compound 0.316 µM
[10] = second compound 0.0316 µM, first compound 1 µM
[11] = second compound 0.0316 µM, first compound 3.16 µM
[12] = second compound 0.0316 µM, first compound 10 µM
[13] = second compound 0.1 µM, first compound 0.0316 µM
[14] = second compound 0.1 µM, first compound 0.1 µM
[15] = second compound 0.1 µM, first compound 0.316 µM
[16] = second compound 0.1 µM, first compound 1 µM
[17] = second compound 0.1 µM, first compound 3.16 µM
[18] = second compound 0.1 µM, first compound 10 µM
[19] = second compound 0.316 µM, first compound 0.0316 µM
[20] = second compound 0.316 µM, first compound 0.1 µM
[21] = second compound 0.316 µM, first compound 0.316 µM
[22] = second compound 0.316 µM, first compound 1 µM
[23] = second compound 0.316 µM, first compound 3.16 µM
[24] = second compound 0.316 µM, first compound 10 µM
[25] = second compound 1 µM, first compound 0.0316 µM
[26] = second compound 1 µM, first compound 0.1 µM
[27] = second compound 1 µM, first compound 0.316 µM
[28] = second compound 1 µM, first compound 1 µM
[29] = second compound 1 µM, first compound 3.16 µM
[30] = second compound 1 µM, first compound 10 µM
[31] = second compound 3.16 µM, first compound 0.0316 µM
[32] = second compound 3.16 µM, first compound 0.1 µM
[33] = second compound 3.16 µM, first compound 0.316 µM
[34] = second compound 3.16 µM, first compound 1 µM
[35] = second compound 3.16 µM, first compound 3.16 µM
[36] = second compound 3.16 µM, first compound 10 µM
[37] = second compound 10 µM, first compound 0.0316 µM
[38] = second compound 10 µM, first compound 0.1 µM
[39] = second compound 10 µM, first compound 0.316 µM
[40] = second compound 10 µM, first compound 1 µM
[41] = second compound 10 µM, first compound 3.16 µM
[42] = second compound 10 µM, first compound 10 µM
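Also: spheroids exposed to agents for 7 days before readout.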
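For viability, T/C in this document: percent viability relative to DMSO vehicle control wells taken as 100%.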

IC50 [1]: < 31.6 nM
IC50 [2]: < 31.6 nM
IC50 [3]: < 31.6 nM
IC50 [4]: < 31.6 nM
IC50 [5]: < 31.6 nM
IC50 [6]: < 31.6 nM
Structure (SMILES): CC1COCCN1c1cc(-c2ccnn2C)c2ccnc(-c3ccn[nH]3)c2n1 (configuration not stated) + Cc1cnc(CNC(=O)c2c(=O)c3ccc(N4CCCN(C)CC4)nc3n3c2sc2ccccc23)cn1
viability, T/C [7]: 49.5%
viability, T/C [8]: 29.5%
viability, T/C [9]: 31.4%
viability, T/C [10]: 24.8%
viability, T/C [11]: 25.9%
viability, T/C [12]: 21.4%
viability, T/C [13]: 42.5%
viability, T/C [14]: 35.8%
viability, T/C [15]: 29.2%
viability, T/C [16]: 25.7%
viability, T/C [17]: 23.7%
viability, T/C [18]: 20.7%
viability, T/C [19]: 28.4%
viability, T/C [20]: 32.1%
viability, T/C [21]: 26%
viability, T/C [22]: 28.5%
viability, T/C [23]: 37.4%
viability, T/C [24]: 24.8%
viability, T/C [25]: 30.6%
viability, T/C [26]: 29.8%
viability, T/C [27]: 31.9%
viability, T/C [28]: 24%
viability, T/C [29]: 19.6%
viability, T/C [30]: 17.9%
viability, T/C [31]: 28.8%
viability, T/C [32]: 22.4%
viability, T/C [33]: 25.8%
viability, T/C [34]: 24.4%
viability, T/C [35]: 22.5%
viability, T/C [36]: 17%
viability, T/C [37]: 30.2%
viability, T/C [38]: 22.7%
viability, T/C [39]: 23%
viability, T/C [40]: 19.7%
viability, T/C [41]: 24.2%
viability, T/C [42]: 19.3%

IC50 (curve of compound): > 316 nM
Structure (SMILES): Cn1ncnc1[C@H]1c2n[nH]c(=O)c3cc(F)cc(c23)N[C@@H]1c1ccc(F)cc1
viability, T/C (compound 0.000999 µM): 101% and 92.4% and 96.4%
viability, T/C (compound 0.00316 µM): 90.2% and 96.7% and 93.7%
viability, T/C (compound 0.00999 µM): 104% and 101% and 99.2%
viability, T/C (compound 0.0316 µM): 88.4% and 99.1% and 102%
viability, T/C (compound 0.0999 µM): 106% and 100% (2×)
viability, T/C (compound 0.316 µM): 99% and 97.3% and 99.4%

IC50 [1]: 5390 nM
IC50 [2]: 2100 nM
IC50 [3]: < 31.6 nM
IC50 [4]: < 31.6 nM
IC50 [5]: < 31.6 nM
IC50 [6]: < 31.6 nM
Structure (SMILES): CCCS(=O)(=O)Nc1ccc(F)c(C(=O)c2c[nH]c3ncc(-c4ccc(Cl)cc4)cc23)c1F + Cc1cnc(CNC(=O)c2c(=O)c3ccc(N4CCCN(C)CC4)nc3n3c2sc2ccccc23)cn1
viability, T/C [7]: 107%
viability, T/C [8]: 110%
viability, T/C [9]: 113%
viability, T/C [10]: 104%
viability, T/C [11]: 90%
viability, T/C [12]: 3.94%
viability, T/C [13]: 58.2%
viability, T/C [14]: 59%
viability, T/C [15]: 56%
viability, T/C [16]: 48.5%
viability, T/C [17]: 49.9%
viability, T/C [18]: 10.5%
viability, T/C [19]: 34.4%
viability, T/C [20]: 43.5%
viability, T/C [21]: 38.5%
viability, T/C [22]: 38.4%
viability, T/C [23]: 33.1%
viability, T/C [24]: 8.31%
viability, T/C [25]: 31%
viability, T/C [26]: 34.2%
viability, T/C [27]: 36.7%
viability, T/C [28]: 35.9%
viability, T/C [29]: 37.1%
viability, T/C [30]: 4.42%
viability, T/C [31]: 31.1%
viability, T/C [32]: 18.5%
viability, T/C [33]: 32.4%
viability, T/C [34]: 23%
viability, T/C [35]: 27.7%
viability, T/C [36]: 0.11%
viability, T/C [37]: 15.7%
viability, T/C [38]: 21.4%
viability, T/C [39]: 27.6%
viability, T/C [40]: 19.2%
viability, T/C [41]: 23.9%
viability, T/C [42]: 0.17%

IC50 (curve of compound): 6340 nM and 3380 nM and 5330 nM
Structure (SMILES): CC1COCCN1c1cc(C2(S(C)(=N)=O)CC2)nc(-c2ccnc3[nH]ccc23)n1 (configuration not stated)
viability, T/C (compound 0.0316 µM): 112% and 99% and 92.8%
viability, T/C (compound 0.1 µM): 102% and 101% and 90.8%
viability, T/C (compound 0.316 µM): 122% and 95% and 90%
viability, T/C (compound 1 µM): 94.4% and 94.6% and 92.2%
viability, T/C (compound 3.16 µM): 72.2% and 51.3% and 62.8%
viability, T/C (compound 10 µM): 36% and 28.3% and 34.5%

IC50 (curve of compound): 631 nM and 686 nM and 729 nM
Structure (SMILES): CC(C)(O)C1CCC(Nc2ccc3ncc(-c4cccc(C(F)(F)F)c4)n3n2)CC1 (configuration not stated)
viability, T/C (compound 0.0316 µM): 103% and 105% (2×)
viability, T/C (compound 0.1 µM): 92.2% and 90.8% and 100%
viability, T/C (compound 0.316 µM): 108% and 95.6% and 93.2%
viability, T/C (compound 1 µM): 16.1% and 27.9% and 33.8%
viability, T/C (compound 3.16 µM): 0.52% and 1.27% and 3.2%
viability, T/C (compound 10 µM): 12.4% and 1.83% and 2.83%

IC50 [1]: < 31.6 nM
IC50 [2]: 109 nM
IC50 [3]: < 31.6 nM
IC50 [4]: < 31.6 nM
IC50 [5]: < 31.6 nM
IC50 [6]: < 31.6 nM
Structure (SMILES): Nc1ccn(C2OC(CO)C(O)C2(F)F)c(=O)n1 (configuration not stated) + Cc1cnc(CNC(=O)c2c(=O)c3ccc(N4CCCN(C)CC4)nc3n3c2sc2ccccc23)cn1
viability, T/C [7]: 35.4%
viability, T/C [8]: 35.6%
viability, T/C [9]: 16.7%
viability, T/C [10]: 14.6%
viability, T/C [11]: 17.8%
viability, T/C [12]: 14.1%
viability, T/C [13]: 48.2%
viability, T/C [14]: 56.5%
viability, T/C [15]: 20.4%
viability, T/C [16]: 16.5%
viability, T/C [17]: 19.9%
viability, T/C [18]: 14.9%
viability, T/C [19]: 45.8%
viability, T/C [20]: 26.8%
viability, T/C [21]: 17.7%
viability, T/C [22]: 20.3%
viability, T/C [23]: 15.1%
viability, T/C [24]: 17%
viability, T/C [25]: 32.5%
viability, T/C [26]: 30.7%
viability, T/C [27]: 24.1%
viability, T/C [28]: 28.2%
viability, T/C [29]: 18.3%
viability, T/C [30]: 18.4%
viability, T/C [31]: 28.4%
viability, T/C [32]: 41.8%
viability, T/C [33]: 24%
viability, T/C [34]: 20.4%
viability, T/C [35]: 16.4%
viability, T/C [36]: 23.5%
viability, T/C [37]: 28.4%
viability, T/C [38]: 28.8%
viability, T/C [39]: 22.4%
viability, T/C [40]: 21%
viability, T/C [41]: 20%
viability, T/C [42]: 18.5%
